In ChEMBL document CHEMBL1126927 one finds K ass data, which are given here for 3 molecules.

The test has as its target Estrogen receptor (Ovis aries) (UniProt P49885+Q9TU15).

Description: Association constant for estrogen receptor

`[N-]=[N+]=Nc1c(F)c(F)c(C(=O)c2c(-c3ccc(O)cc3)sc3cc(O)ccc23)c(F)c1F` registered a K ass of 1.7e+08.
For `[N-]=[N+]=Nc1ccc(C(=O)c2c(-c3ccc(O)cc3)sc3cc(O)ccc23)cc1`, the K ass came to 1e+09.
The molecule `O=C(c1ccc(OCCN2CCCC2)cc1)c1c(-c2ccc(O)cc2)sc2cc(O)ccc12` returned a K ass of 1.3e+09.
